According to publication PMC5069690, “Hepatic 3D spheroid models for the detection and study of compounds with cholestatic liability” (Scientific Reports, 2016):
Several values for one entry are separate records, joined by “and”; a condition that tells them apart may be missing. Equal values may be shown once. Read-outs that look alike come from different tables or passages of the source.

Tests used:
[1] = test system: ABCB11, SRXN1, NFE2L2, DR5 expression in PHH spheroids; assay: RT-qPCR gene expression in PHH spheroids; format: cell-based, human; conditions: 8 days
Procedure: (§1) Total RNA was extracted using Qiazol according to the manufacturer’s protocol. RNA was reverse-transcribed into cDNA with SuperScript III reverse transcriptase. RT-qPCR analysis was performed with a 7500 Fast Real-Time PCR system using a TaqMan Universal or SYBR Green mix.

[2] = test system: PHH spheroids; assay: Repeated-exposure toxicity in PHH spheroids with or without BA mixture, cellular ATP content;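 on all read-outs here: primary human hepatocyte spheroids dosed every second day with compound, with or without a bile acid mixture, viability read as cellular ATP by luminescence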; conditions: for CC50: Homo sapiens; for CC50 / Cholestatic Index (EC50 (+BA) / EC50 (-BA)): one value per independent experiment; for CIx (mean of the independent experiments) / Cholestatic risk classification based on CIx / Cholestatic Index (EC50 (+BA) / EC50 (-BA)) / CIx: PHH spheroids; for CIx (mean of the independent experiments): 8 days co-exposure with BAs vs compound alone; for Cholestatic Index (EC50 (+BA) / EC50 (-BA)): ATP; for CIx: cellular ATP content read-out, Supplementary Fig. S2A
Procedure: Cryopreserved PHH (Bioreclamation IVT, USA) were thawed according to the supplier’s instructions. The cells were seeded in PHH medium (Williams’ medium E containing 100 units/ml penicillin, 100 μg/ml streptomycin, 2 mM L-glutamine, 10 μg/ml insulin, 5.5 μg/ml transferrin, 6.7 ng/ml sodium selenite, 100 nM dexamethasone) supplemented with 10% fetal bovine serum. The cells were seeded at a density of 1,500 viable cells per well in ultra-low attachment (ULA) plates (Corning). When PHH had reassembled into compact aggregates (day 4–6 after seeding), spheroids were shifted to serum-free PHH medium. […] The hepatocytes were derived from 5 male and 5 female donors and were aggregated into 3D microtissues in GravityPLUS™ hanging drop plates and cultivated and assayed in GravityTRAP™ plates. The spheroids were maintained in serum-free PHH medium.
(§5) Stock solutions of the compounds were diluted in culture medium to a maximal final DMSO concentration of 0.3% for PHH spheroids and 0.6% for HepaRG spheroids. Toxicity studies were started at day 8 and day 5 for PHH and HepaRG spheroids, respectively. Spheroids were treated every other day with the compounds in the presence or absence of the BA mixture. Cellular ATP content was determined as a marker of cell viability using the CellTiter-Glo Luminescent Cell Viability Assay (Promega, Sweden). When indicated, albumin concentrations were determined by ELISA (Bethyl laboratories, USA).
(§6) To evaluate the cholestatic risk of the tested compounds we introduced the cholestatic index (CIx). The CIx is defined as the ratio between the EC50-value from co-exposure to a compound and the BA mixture and the EC50-value from exposure to the compound alone.

[3] = test system: ABCB11, SRXN1, NFE2L2, DR5 expression in HepaRG spheroids; assay: RT-qPCR gene expression in HepaRG spheroids; format: cell-based, human; conditions: 8 days; for DR5 expression / NFE2L2 expression / SRXN1 expression: co-exposure with non-toxic BA mixture compared to compound or BAs alone
Procedure: as §1

[4] = test system: multi-donor PHH spheroids; assay: Repeated-exposure toxicity in multi-donor PHH spheroids with or without BA mixture, albumin secretion; format: cell-based, human; conditions: for EC50: Homo sapiens, 336 h, 14 days repeated exposure; for Cholestatic Index (EC50 (+BA) / EC50 (-BA)) / Cholestatic risk classification based on CIx: 14 days; for Cholestatic risk classification based on CIx: multi-donor PHH spheroids
Procedure: The cells were seeded in PHH medium (Williams’ medium E containing 100 units/ml penicillin, 100 μg/ml streptomycin, 2 mM L-glutamine, 10 μg/ml insulin, 5.5 μg/ml transferrin, 6.7 ng/ml sodium selenite, 100 nM dexamethasone) supplemented with 10% fetal bovine serum. […] When PHH had reassembled into compact aggregates (day 4–6 after seeding), spheroids were shifted to serum-free PHH medium. […] The spheroids were maintained in serum-free PHH medium.
(§2) Toxicity studies were started at day 8 and day 5 for PHH and HepaRG spheroids, respectively.

[5] = test system: HepaRG spheroids; assay: Repeated-exposure toxicity in HepaRG spheroids with or without BA mixture, cellular ATP content; format: cell-based, human; conditions: for CC50: Homo sapiens, HepaRG, compound alone, read-out: Without BA EC50; for CC50 / Cholestatic Index (EC50 (+BA) / EC50 (-BA)): ATP, one value per independent experiment
Procedure: Cryopreserved differentiated HepaRG cells (Biopredic International, France) were thawed according to the supplier’s instructions. The cells were seeded in Williams’ medium E with GlutaMAX^TM containing the thaw, seed and general purpose additive (ADD670; Biopredic International). The cells were seeded at a density of 2,000 viable cells per well in ULA plates. From day 5, the spheroids were maintained in medium containing 0.5% DMSO, the serum-free induction additive (ADD650, Biopredic International), 20 ng/ml epidermal growth factor and 10 ng/ml hepatocyte growth factor (HumaXpress, Nordic BioSite, Sweden).
as §2

[6] = test system: BSEP; conditions: quoted in the discussion, no reference given; read-out: BSEP inhibition IC50; cited from earlier work
[7] = test system: F-actin cytoskeleton in PHH spheroids; assay: F-actin cytoskeleton integrity (Phalloidin staining) in PHH spheroids; format: cell-based, human; conditions: 8 days
Procedure: (§3) Spheroids were fixed in 4% paraformaldehyde at 4 °C O/N. Immunohistochemistry was performed on cryosections (8 μm) for BSEP (Atlas, Sweden) and MRP2 (Abcam, UK). […] F-actin was visualized using Alexa Fluor 488 Phalloidin. Slides were mounted with ProLong Gold Antifade Mountant with DAPI and fluorescence was assessed by confocal microscopy (Zeiss LSM 710). Surface expression of the BA transporters was quantified using CellProfiler software.

[8] = test system: PHH spheroids; assay: Toxicity in PHH spheroids with or without BA mixture, albumin secretion read-out (Supplementary Fig. S2); conditions: 8 days, Supplementary Fig. S2B
Procedure: as §5, §6

[9] = test system: HepaRG spheroids; assay: Bile acid accumulation (fluorescent taurocholic acid derivative, confocal microscopy) in HepaRG spheroids; format: cell-based, human
Procedure: (§4) BA accumulation was assessed with a fluorescently labelled taurocholic acid derivative, tauro-nor-THCA-25-DBD (Genomembrane Company, Ltd, Japan). After 6 days of chlorpromazine exposure, the spheroids were co-exposed to chlorpromazine and 20 μM tauro-nor-THCA-25-DBD for an additional 2 days. Fluorescence was assessed by confocal microscopy (Zeiss LSM 710).

[10] = test system: F-actin cytoskeleton in HepaRG spheroids; assay: F-actin cytoskeleton integrity (Phalloidin staining) in HepaRG spheroids; format: cell-based, human; conditions: 8 days
Procedure: as §3

[11] = test system: PHH spheroids; assay: Bile acid accumulation (fluorescent taurocholic acid derivative, confocal microscopy) in PHH spheroids; format: cell-based, human; conditions: repeated exposure for 8 days
Procedure: as §4

[12] = co-exposure with non-toxic BA mixture compared to compound or BAs alone
[13] = 192 h, read-out: Without BA EC50, PHH spheroids, 8 days repeated exposure, compound alone, ATP
[14] = 336 h, read-out: Without BA EC50, PHH spheroids, 14 days repeated exposure, compound alone, ATP
[15] = multi-donor PHH spheroids (10 donors), co-exposure with BA mixture, albumin secretion, read-out: With BA EC50
[16] = multi-donor PHH spheroids (10 donors), compound alone, albumin secretion, read-out: Without BA EC50
[17] = 8 days co-exposure with BAs vs compound alone
[18] = 192 h, 8 days repeated exposure
[19] = 336 h, 14 days repeated exposure
[20] = multi-donor PHH spheroids (10 donors), albumin secretion

Compound	CC50 [2, 13] [µM]	CC50 [2, 14] [µM]	CIx (mean of the independent experiments) [2]	EC50 [4, 15] [µM]	EC50 [4, 16] [µM]	CIx (mean of the independent experiments) [5, 17]	CC50 [5, 18] [µM]	CC50 [5, 19] [µM]	Cholestatic risk classification based on CIx ([2]; 8 days)	Cholestatic Index (EC50 (+BA) / EC50 (-BA)) ([2]; 14 days)	IC50 [6] [µM]	Cholestatic Index (EC50 (+BA) / EC50 (-BA)) ([4]; both, human)	Cholestatic risk classification based on CIx ([5]; 8 days)	Cholestatic Index (EC50 (+BA) / EC50 (-BA)) ([5]; 8 days)	Cholestatic Index (EC50 (+BA) / EC50 (-BA)) ([5]; 14 days)	Cholestatic Index (EC50 (+BA) / EC50 (-BA)) ([2]; 8 days)	also measured
CC(=O)Nc1ccc(O)cc1 [Acetaminophen, acetaminophen]	1090	804	1.89 ± 0.37	1830	1910	1.02 ± 0.03	1600	1000									DR5 expression [1, 12]: no induction of DR5; NFE2L2 expression [1, 12]: no changes in SRXN1 or NFE2L2 expression; SRXN1 expression [1, 12]: no changes in SRXN1 or NFE2L2 expression; DR5 expression [3]: no induction of DR5; NFE2L2 expression [3]: no changes in SRXN1 or NFE2L2 expression; SRXN1 expression [3]: no changes in SRXN1 or NFE2L2 expression
COc1ccccc1Oc1c(NS(=O)(=O)c2ccc(C(C)(C)C)cc2)nc(-c2ncccn2)nc1OCCO [Bosentan, bosentan]	66	55	0.19 ± 0.12	54	102	0.60 ± 0.06	187	115	cholestatic risk (compounds with a CIx ≤ 0.80 were considered to have cholestatic risk)	0.11 and 0.12 and 0.16	38.1	0.53	cholestatic risk (compounds with a CIx ≤ 0.80 were considered to have cholestatic risk)	0.63 and 0.54 and 0.64	0.61 and 0.50 and 0.48		
CN(C)CCCN1c2ccccc2Sc2ccc(Cl)cc21 [Chlorpromazine, chlorpromazine]	14	12	0.90 ± 0.12	1.7	4.5	0.87 ± 0.06	17	14	low cholestatic risk (Compounds with a CIx ≥ 0.80)	0.80 and 0.71 and 0.77	148	0.38	low cholestatic risk (Compounds with a CIx ≥ 0.80)	0.88 and 0.81 and 0.93	0.63 and 0.65 and 0.69	0.85 and 1.07 and 0.83	F-actin expression and integrity [7]: reduced F-actin expression and disrupted its integrity; DR5 expression [1, 12]: significantly induced DR5; NFE2L2 expression [1, 12]: significantly further increased NFE2L2 expression; SRXN1 expression [1, 12]: significant induction of SRXN1; expression of ABCB11, encoding BSEP ([1]; normalized to GAPDH): inhibited the expression of ABCB11; DR5 expression ([1]; toxic concentration alone (80x BA; 12.5 µM CPZ), Supplementary Fig. S3): no change in DR5 expression; CIx [8]: 0.69; toxicity to the spheroids ([9]; 10 μM, 8 days): toxic; intracellular BA accumulation (tauro-nor-THCA-24-DBD) ([9]; repeated exposure for 8 days): cytoplasmic accumulation; F-actin expression and integrity [10]: reduced F-actin expression and disrupted its integrity; CIx ([2]; 8 days): 0.75; Cholestatic risk classification based on CIx ([2]; 14 days): cholestatic risk (compounds with a CIx ≤ 0.80 were considered to have cholestatic risk); DR5 expression [3]: significantly induced DR5; NFE2L2 expression [3]: significantly further increased NFE2L2 expression; SRXN1 expression [3]: significant induction of SRXN1; expression of ABCB11, encoding BSEP ([3]; normalized to GAPDH): inhibited the expression of ABCB11; intracellular BA accumulation (tauro-nor-THCA-24-DBD) [11]: cytoplasmic accumulation; Cholestatic risk classification based on CIx ([5]; 14 days): cholestatic risk (compounds with a CIx ≤ 0.80 were considered to have cholestatic risk); CIx (mean of the independent experiments) ([5]; 14 days of repeated exposure): 0.66 ± 0.03
CCC(=O)O[C@H]1[C@H](O[C@@H]2[C@@H](C)[C@H](O[C@H]3C[C@@](C)(OC)[C@@H](O)[C@H](C)O3)[C@@H](C)C(=O)O[C@H](CC)[C@@](C)(O)[C@H](O)[C@@H](C)C(=O)[C@H](C)C[C@@]2(C)O)O[C@H](C)C[C@@H]1N(C)C [Erythromycin estolate, erythromycin estolate]				18	28												Cholestatic Index (EC50 (+BA) / EC50 (-BA)) [4, 20]: 0.64; Cholestatic risk classification based on CIx [4]: cholestatic risk (compounds with a CIx ≤ 0.80 were considered to have cholestatic risk)
CN(CCOc1ccc(CC2SC(=O)NC2=O)cc1)c1ccccn1 (stereo not shown) [Rosiglitazone, rosiglitazone]				17	19							0.89					
CN(C)[C@@H]1C(O)=C(C(N)=O)C(=O)[C@@]2(O)C(O)=C3C(=O)c4c(O)cccc4[C@@](C)(O)[C@H]3C[C@@H]12 [Tetracycline, tetracycline]	116	74	1.00 ± 0.08	123	120	1.05 ± 0.12	242	121	low cholestatic risk (Compounds with a CIx ≥ 0.80)	1.41 and 1.07 and 0.94			low cholestatic risk (Compounds with a CIx ≥ 0.80)	0.91 and 1.13 and 1.12	0.95 and 1.18 and 1.16	1.01 and 0.91 and 1.07	CIx [8]: 1.08; CIx ([2]; 8 days): 0.87; Cholestatic risk classification based on CIx ([2]; 14 days): low cholestatic risk (Compounds with a CIx ≥ 0.80); Cholestatic Index (EC50 (+BA) / EC50 (-BA)) [4, 20]: 1.03; Cholestatic risk classification based on CIx [4]: low cholestatic risk (Compounds with a CIx ≥ 0.80); Cholestatic risk classification based on CIx ([5]; 14 days): low cholestatic risk (Compounds with a CIx ≥ 0.80)
Clc1ccccc1CN1CCc2sccc2C1 [Ticlopidine, ticlopidine]				21	23												
Cc1ccc(C(=O)c2cc(O)c(O)c([N+](=O)[O-])c2)cc1 [Tolcapone, tolcapone]				13	14							0.93					
Cc1c(C)c2c(c(C)c1O)CCC(C)(COc1ccc(CC3SC(=O)NC3=O)cc1)O2 (stereo not shown) [Troglitazone, troglitazone]	11	6.2	0.80 ± 0.17	8.8	14	0.71 ± 0.17			cholestatic risk (compounds with a CIx ≤ 0.80 were considered to have cholestatic risk)	0.45 and 0.67 and 0.86	2.7	0.63	cholestatic risk (compounds with a CIx ≤ 0.80 were considered to have cholestatic risk)	0.56 and 0.90 and 0.67		0.99 and 0.72 and 0.67	
